In test [1] the target is T1, AHR (Homo sapiens, UniProt P35869).
T1 construct: U87 MG glioblastoma cells (ATCC #HTB-14) endogenously expressing AHR; endogenous in cells; host or cells: U87 MG glioblastoma cells (ATCC #HTB-14)
T1 sequence (P35869 11-848): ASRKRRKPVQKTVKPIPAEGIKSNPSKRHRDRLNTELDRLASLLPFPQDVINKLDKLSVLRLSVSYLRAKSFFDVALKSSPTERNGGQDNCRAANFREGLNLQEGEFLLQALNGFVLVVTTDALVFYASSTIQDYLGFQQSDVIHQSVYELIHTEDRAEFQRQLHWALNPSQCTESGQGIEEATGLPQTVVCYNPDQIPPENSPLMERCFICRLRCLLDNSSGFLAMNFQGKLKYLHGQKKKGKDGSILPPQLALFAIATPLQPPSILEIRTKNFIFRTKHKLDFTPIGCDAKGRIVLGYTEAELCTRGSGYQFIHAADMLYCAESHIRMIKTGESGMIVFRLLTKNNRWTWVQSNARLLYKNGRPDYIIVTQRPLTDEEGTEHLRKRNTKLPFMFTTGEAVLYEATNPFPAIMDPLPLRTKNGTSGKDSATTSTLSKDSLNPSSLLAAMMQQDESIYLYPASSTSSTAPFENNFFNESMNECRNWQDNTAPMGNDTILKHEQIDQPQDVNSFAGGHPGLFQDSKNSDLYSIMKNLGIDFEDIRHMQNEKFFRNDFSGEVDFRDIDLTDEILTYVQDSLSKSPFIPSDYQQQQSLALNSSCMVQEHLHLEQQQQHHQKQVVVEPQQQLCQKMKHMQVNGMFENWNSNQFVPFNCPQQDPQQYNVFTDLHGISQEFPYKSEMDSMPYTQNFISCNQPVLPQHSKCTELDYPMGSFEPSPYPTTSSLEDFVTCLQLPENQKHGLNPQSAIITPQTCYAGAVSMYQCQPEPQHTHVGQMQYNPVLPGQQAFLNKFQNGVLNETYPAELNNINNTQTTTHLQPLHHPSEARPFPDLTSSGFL
The test can be described thus: In vitro assay 1: antagonism in human cell line (AHR transactivation, firefly luciferase reporter, kynurenic acid prestimulated). It is filed as cell-based. To be noted: AHR Antagonism Human IC50 [M]. The gist of the method: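 U87 MG glioblastoma cells with endogenous AHR, stably carrying a DRE-driven firefly luciferase reporter and constitutive Renilla reporter, prestimulated with kynurenic acid before compound addition. Firefly and Renilla read by dual luciferase; Renilla flags toxicity; normalized to controls (150 μM kynurenic acid + 5 μM staurosporine as full inhibition); repeat values averaged or median.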
(In general: Reporter assays use an easily measured gene product as a stand-in for the process of interest.)

In test [2] the target is T2, AHR (Mus musculus, UniProt P30561).
T2 sequence (P30561 1-848 P471L/N533S/M589L): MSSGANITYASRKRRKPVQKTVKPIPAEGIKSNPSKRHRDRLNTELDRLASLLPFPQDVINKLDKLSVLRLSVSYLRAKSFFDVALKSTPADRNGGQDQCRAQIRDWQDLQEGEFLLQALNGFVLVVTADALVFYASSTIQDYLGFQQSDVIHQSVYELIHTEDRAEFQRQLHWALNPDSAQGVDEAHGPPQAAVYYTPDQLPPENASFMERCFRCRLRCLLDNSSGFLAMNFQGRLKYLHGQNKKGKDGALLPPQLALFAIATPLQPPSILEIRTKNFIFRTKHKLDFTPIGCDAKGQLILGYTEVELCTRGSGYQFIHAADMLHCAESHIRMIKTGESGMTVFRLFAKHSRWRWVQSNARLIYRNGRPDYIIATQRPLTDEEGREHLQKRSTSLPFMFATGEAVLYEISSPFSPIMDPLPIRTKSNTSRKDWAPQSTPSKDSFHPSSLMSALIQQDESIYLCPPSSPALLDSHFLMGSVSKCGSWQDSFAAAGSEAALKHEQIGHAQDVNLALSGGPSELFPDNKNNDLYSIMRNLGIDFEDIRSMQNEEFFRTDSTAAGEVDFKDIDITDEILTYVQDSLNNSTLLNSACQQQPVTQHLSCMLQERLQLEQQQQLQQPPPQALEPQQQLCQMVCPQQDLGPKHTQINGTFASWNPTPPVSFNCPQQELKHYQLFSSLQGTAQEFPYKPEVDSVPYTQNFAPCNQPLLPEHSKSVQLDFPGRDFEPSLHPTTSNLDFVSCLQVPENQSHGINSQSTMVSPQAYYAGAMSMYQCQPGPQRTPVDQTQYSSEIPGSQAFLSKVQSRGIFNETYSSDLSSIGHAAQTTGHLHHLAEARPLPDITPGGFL
The test can be described thus: In vitro assay 3: antagonism in mouse cell line (AHR transactivation, firefly luciferase reporter, kynurenic acid prestimulated). It is filed as cell-based. In short, it runs like this:
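Mouse cells stably carrying a DRE-driven, AHR-inducible firefly luciferase reporter were prestimulated with the endogenous agonist kynurenic acid before compound addition. Luciferase activity was measured by luminescence and normalized to positive and negative controls, with cells lacking kynurenic acid serving as full-inhibition control. Repeat tests are reported as mean or median.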

[3] abbreviates: mouse Hepa 1c1c7 cells, 200 μM kynurenic acid, 20 hours, read-out: AHR Antagonism Mouse IC50.
The mark [4] stands for this setting: Hepa 1c1c7 cells, 200 μM kynurenic acid, 20 hours, firefly luciferase reporter, read-out: AHR Antagonism Mouse IC50.

The term IC50 denotes the concentration at which inhibition is half-maximal.

Like-named read-outs stand apart in the source and are kept apart here.

On to `N#Cc1ccc(-c2nc3c4cccc(Br)c4nc(N[C@@H]4CCCCNC4=O)n3n2)cc1` [Example 558, 4-(7-bromo-5-{[(3R)-2-oxoazepan-3-yl]amino}[1,2,4]triazolo[1,5-c]quinazolin-2-yl)benzonitrile], for which the IC50 at AHR [1] came out at 5.96e-09 M; on AHR [2] (setting [3]), 0.276 nM.

In the case of `COC(=O)c1cccc2nc(N[C@@H]3CCCCNC3=O)n3nc(-c4ccc(OC)cc4)nc3c12` [Example 252, methyl 2-(4-methoxyphenyl)-5-{[(3R)-2-oxoazepan-3-yl]amino}[1,2,4]triazolo[1,5-c]quinazoline-10-carboxylate], the IC50 against AHR [1] is 6.55e-08 M; on AHR [2] (setting [3]), 49.8 nM.

Take `CCC[C@@H](Nc1nc2ccccc2c2nc(-c3cscc3OC)nn12)C(=O)NC` [Example 339, N^2-[2-(4-methoxythiophen-3-yl)[1,2,4]triazolo[1,5-c]quinazolin-5-yl]-N-methyl-D-norvalinamide]: the IC50 on AHR [1] is 3.37e-07 M; at AHR [2] (setting [3]), 169 nM.

With `O=C1NCCCC[C@H]1Nc1nc2ccccc2c2nc(-c3cncc(F)c3)nn12` [Example 479, (3R)-3-{[2-(5-fluoropyridin-3-yl)[1,2,4]triazolo[1,5-c]quinazolin-5-yl]amino}azepan-2-one], the IC50 on AHR [1] worked out at 3.53e-08 M; at AHR [2] (read-out: AHR Antagonism Mouse IC50, mouse Hepa 1c1c7 cells, 200 μM kynurenic acid, 20 hours) it was 33.2 nM.

As to `CC(C)n1cc(-c2nc3c4cccc(S(C)(=O)=O)c4nc(N[C@@H]4CCCCNC4=O)n3n2)cn1` [Example 846, (3R)-3-({7-(methanesulfonyl)-2-[1-(propan-2-yl)-1H-pyrazol-4-yl][1,2,4]triazolo[1,5-c]quinazolin-5-yl}amino)azepan-2-one], the IC50 at AHR [1] (firefly luciferase reporter) is 1.29e-08 M; at AHR [2] (setting [4]) it was 232 nM.

In the case of `CSc1cccc(-c2nc3c4ccccc4nc(N[C@@H]4CCCCNC4=O)n3n2)c1` [Example 449, (3R)-3-({2-[3-(methylsulfanyl)phenyl][1,2,4]triazolo[1,5-c]quinazolin-5-yl}amino)azepan-2-one], the results for the IC50 against AHR [1] and at AHR [2] (setting [3]) were 1.73e-08 M and 21 nM, respectively.

With `COc1ccc(-c2nc3c4cccc(S(=O)(=O)C(C)C)c4nc(N[C@@H]4CNCCNC4=O)n3n2)cc1` [Example 941, (6R)-6-{[2-(4-methoxyphenyl)-7-(propan-2-sulfonyl)[1,2,4]triazolo[1,5-c]quinazolin-5-yl]amino}-1,4-diazepan-5-one], the IC50 against AHR [1] (firefly luciferase reporter) was found to be 3.61e-08 M; on AHR [2] (setting [4]), 67.5 nM.

Consider `CCCNC(=O)[C@H](C)Nc1nc2c(Br)cccc2c2nc(-c3cnn(C)c3)nn12` [Example 795, N^2-[7-bromo-2-(1-methyl-1H-pyrazol-4-yl)[1,2,4]triazolo[1,5-c]quinazolin-5-yl]-N-propyl-L-alaninamide], for which the IC50 is 2.46e-07 M against AHR [1] (firefly luciferase reporter) and 3130 nM on AHR [2] (setting [4]).

For the compound `Cn1nccc1-c1nc2c3ccccc3nc(N[C@@H]3CCCCNC3=O)n2n1` [Example 65, (3R)-3-{[2-(1-methyl-1H-pyrazol-5-yl)[1,2,4]triazolo[1,5-c]quinazolin-5-yl]amino}azepan-2-one], the IC50 was 6.42e-09 M on AHR [1] and 3.17 nM on AHR [2] (setting [3]).

For the compound `COc1cccc2c1nc(N[C@@H]1CCCCNC1=O)n1nc(-c3cnn(C4CC4)c3)nc21` [Example 757, (3R)-3-{[2-(1-cyclopropyl-1H-pyrazol-4-yl)-7-methoxy[1,2,4]triazolo[1,5-c]quinazolin-5-yl]amino}azepan-2-one], the half-inhibitory concentration (IC50) on AHR [1] amounted to 5.4e-08 M; at AHR [2] (setting [3]) it was 109 nM.

For `O=C1NCCCC[C@@H]1Nc1nc2ccccc2c2nc(-c3ccncc3F)nn12` [Example 481, (3S)-3-{[2-(3-fluoropyridin-4-yl)[1,2,4]triazolo[1,5-c]quinazolin-5-yl]amino}azepan-2-one], the IC50 on AHR [1] was 1.02e-06 M; on AHR [2] (setting [3]) it was 104 nM.

Take `Cc1ccccc1-c1nc2c3ccccc3nc(NC3CCCNC3=O)n2n1` (single isomer, unassigned) [Example 49, 3-{[2-(2-methylphenyl)[1,2,4]triazolo[1,5-c]quinazolin-5-yl]amino}piperidin-2-one]: the figures for the IC50 against AHR [1] and on AHR [2] (setting [3]) were 8.5e-08 M and 26.1 nM, respectively.

For the compound `CNCCNC(=O)[C@@H](C)Nc1nc2ccccc2c2nc(-c3ccc(OC)cc3)nn12` [Example 990, N^2-[2-(4-methoxyphenyl)[1,2,4]triazolo[1,5-c]quinazolin-5-yl]-N-[2-(methylamino)ethyl]-D-alaninamide-hydroxy chloride (1/1)], the IC50 against AHR [1] (firefly luciferase reporter) came out at 4.29e-08 M; at AHR [2] (setting [4]), 73.6 nM.

In the case of `O=C1NCCC[C@H]1Nc1nc2c(Br)cccc2c2nc(-c3ccccc3OC(F)(F)F)nn12` [Example 220, (3R)-3-({7-bromo-2-[2-(trifluoromethoxy)phenyl][1,2,4]triazolo[1,5-c]quinazolin-5-yl}amino)piperidin-2-one], the values for the IC50 against AHR [1] and at AHR [2] (setting [3]) were 2e-08 M and 6.76 nM, respectively.

Consider `CCNC(=O)[C@@H](CC)Nc1nc2c(Br)cccc2c2nc(-c3ccc(Cl)cc3OC(F)F)nn12` [Example 798, (2R)-2-({7-bromo-2-[4-chloro-2-(difluoromethoxy)phenyl][1,2,4]triazolo[1,5-c]quinazolin-5-yl}amino)-N-ethylbutanamide], for which the IC50 at AHR [1] (firefly luciferase reporter) was 7.57e-10 M; at AHR [2] (setting [4]), 0.811 nM.

As to `COc1ccc(-c2nc3c4cccc(C5CC5)c4nc(N[C@H]4CNCCNC4=O)n3n2)cc1` [Example 959, (6S)-6-{[7-cyclopropyl-2-(4-methoxyphenyl)[1,2,4]triazolo[1,5-c]quinazolin-5-yl]amino}-1,4-diazepan-5-one], the IC50 on AHR [1] (firefly luciferase reporter) amounted to 5.36e-08 M; at AHR [2] (setting [4]), 368 nM.

For the compound `COc1ccc2nc(N[C@@H]3CCCCNC3=O)n3nc(-c4ccccc4F)nc3c2c1` [Example 240, (3R)-3-{[2-(2-fluorophenyl)-9-methoxy[1,2,4]triazolo[1,5-c]quinazolin-5-yl]amino}azepan-2-one], the IC50 at AHR [1] was 4.08e-08 M; on AHR [2] (setting [3]) it was 171 nM.

In the case of `CC(C)n1cc(-c2nc3c4cccc(Br)c4nc(N[C@H]4CNCCNC4=O)n3n2)cn1` [Example 984, (6S)-6-({7-bromo-2-[1-(propan-2-yl)-1H-pyrazol-4-yl][1,2,4]triazolo[1,5-c]quinazolin-5-yl}amino)-1,4-diazepan-5-one], the IC50 against AHR [1] (firefly luciferase reporter) amounted to 3.84e-08 M; on AHR [2] (setting [4]), 41.2 nM.

Regarding `CCn1cc(-c2nc3c4cccc(Cl)c4nc(N[C@@H]4CCCCNC4=O)n3n2)c(C)n1` [Example 819, (3R)-3-{[7-chloro-2-(1-ethyl-3-methyl-1H-pyrazol-4-yl)[1,2,4]triazolo[1,5-c]quinazolin-5-yl]amino}azepan-2-one], the IC50 against AHR [1] (firefly luciferase reporter) amounted to 2.31e-10 M; on AHR [2] (setting [4]), 0.385 nM.

On to `COc1cccc(-c2nc3c4c(C)cccc4nc(N[C@@H]4CNCCNC4=O)n3n2)c1` [Example 289, (6R)-6-{[2-(3-methoxyphenyl)-10-methyl[1,2,4]triazolo[1,5-c]quinazolin-5-yl]amino}-1,4-diazepan-5-one], for which the IC50 against AHR [1] was determined as 1.12e-06 M; at AHR [2] (setting [3]), 269 nM.

Source of the values: patent US20230113037A1 (Bayer Aktiengesellschaft, priority 2019, published 2023).
